Measured values reported in patent US20080318269A1, “Devices and Methods for the Analysis of Biofilm” (priority 2005, published 2008).
Entries after “also recorded” stand apart in the source; their conditions may differ. Where two headings read alike, the source gives them in different places.

What was measured:
Candida biofilms = assay: Minimum biofilm eradication concentration assay, Candida spp.; assay type: cell-based; settings: sessile (biofilm) Candida
Description: (§1) Biofilm formation and measurement of antimicrobial sensitivity of Candida and Aspergillus biofilms were performed using an assembly of the present invention. The device features a microtliter plate lid with 96 pegs or projections distributed on the lid. Each peg provided the surface for microorganism to adhere, colonize and form a uniform biofilm. The pegs fit precisely into the wells of a standard 96-well microtiter plate. The lid was used in conjunction with a base having special troughs for growing, washing, and incubating fungi. Colonies of Candida sp. were picked from 24 hour cultures on Sabouraud Dextrose agar (SDA) (BBL Microbiological Systems, Cockeysville, Md.) and placed into Mueller-Hinton Broth (MHB) (Difco Laboratories, Detroit Mich.) such that the suspension matched a McFarland standard of 1.0. This suspension was then diluted 1:30 in MHB, and 25 ml were pipetted into the trough chamber of the base. The closed assembly (lid with pegs positioned on the base) was placed on a Hoeffer Red Rocker (VWR, Scientific) set to rock the plates 3.5 cycles per minute in a 37° C. incubator. C. albicans and C. tropicalis were incubated aerobically, while C. glabrata was incubated in 10% CO2. It was determined in preliminary experiments that C. glabrata required 10% CO2 atmosphere for biofilms to form.
(§2) Biofilm susceptibility testing uses the pegged lid of the assembly, now containing biofilms formed after rocking in the tray for 24 hour. Each peg on the lid was gently washed once in […] of phosphate buffered saline solution (PBSS) in a 96-well microtiter plate (Falcon). The pegged lid was then transferred to another 96 well microtiter plate containing 2 fold dilutions antifungal agent in 200 μl of RPMI 1640 (Sigma, St. Louis, Mo.) or RPMI 1640 containing 1% DMSO (see test drug section). After the pegs were exposed to the drugs for 24 hours, the pegged lid was removed and gently rinsed twice in saline. The pegged lid was then placed on a 96 well plate containing RPMI 1640 recovery medium. The pegs were sonicated for 5 minutes (Candida spp.) or 7 minutes (Aspergillus) in an ultrasonicator to dislodge adherent cells into the recovery medium. Aliquots of 20 μl of the recovery medium were spot plated on SDA (Candida spp) or Rose Bengal Agar (A. fumigatus) to obtain the MBEC. The assembly was also used to determine the minimum inhibitory concentration (MIC) and minimum fungicidal concentration (MFC). The turbidity of the wells that contained the antibiotic and planktonic cells which were shed from the biofilm was measured at […] to obtain the MIC. A 20 μl sample from each well was also spot plated onto Sabouraud Dextrose agar (Candida spp) or Rose Bengal Agar (A. fumigatus) to obtain the MFC.
Drugs tested. […]

[1] = tested on: biofilm cells of C. albicans; assay: Minimum biofilm eradication concentration assay, C. albicans; assay type: cell-based, Candida albicans; settings: 24 hours exposure
Description: as §1, with “The closed assembly (lid with pegs positioned on the base) was placed on a Hoeffer Red Rocker (VWR, Scientific) set to rock the plates 3.5 cycles per minute in a 37° C. incubator. C. albicans and C. tropicalis were incubated aerobically, while C. glabrata was incubated in 10% CO2.” left out
Biofilm susceptibility testing uses the pegged lid of the assembly, now containing biofilms formed after rocking in the tray for 24 hour. […] The turbidity of the wells that contained the antibiotic and planktonic cells which were shed from the biofilm was measured at […] to obtain the MIC. […]

[2] = tested on: invasive pulmonary, sinus and cerebral aspergillosis; settings: cited from earlier work
[3] = tested on: planktonic cultures of C. albicans; assay: Planktonic sensitivity (MIC, MFC) of C. albicans to antifungal agents; assay type: cell-based, Candida albicans
Description: as §2
Minimum Inhibitory Concentrations (MIC) and Minimum Fungicidal Concentrations (MFC) were determined according to the guidelines of the National Committee for Clinical laboratory Standards (NCCLS). Briefly, Candida sp. were maintained on polystyrene spheres at −70° C. until plating. […]
(§3) The test wells were then incubated at 37° C. for 24 hours with the antifungal drugs. MICs for Candida were obtained after incubation by reading the turbidity at 650 nm on a microtiter plate reader (Softmax, VWR). […] MFCs were determined for Aspergillus by plating 100 μl from each well onto Rose Bengal Agar, followed by spreading with a sterile glass spreader. […]

[4] = tested on: C. tropicalis planktonic cells; assay: Planktonic sensitivity (MIC) of C. tropicalis to antifungal agents; assay type: cell-based, Candida tropicalis; settings: C. tropicalis strain tested
Description: Biofilm susceptibility testing uses the pegged lid of the assembly, now containing biofilms formed after rocking in the tray for 24 hour. Each peg on the lid was gently washed once in […] of phosphate buffered saline solution (PBSS) in a 96-well microtiter plate (Falcon). The pegged lid was then transferred to another 96 well microtiter plate containing 2 fold dilutions antifungal agent in 200 μl of RPMI 1640 (Sigma, St. Louis, Mo.) or RPMI 1640 containing 1% DMSO (see test drug section). After the pegs were exposed to the drugs for 24 hours, the pegged lid was removed and gently rinsed twice in saline. The pegged lid was then placed on a 96 well plate containing RPMI 1640 recovery medium. […] The turbidity of the wells that contained the antibiotic and planktonic cells which were shed from the biofilm was measured at […] to obtain the MIC. […]
Minimum Inhibitory Concentrations (MIC) and Minimum Fungicidal Concentrations (MFC) were determined according to the guidelines of the National Committee for Clinical laboratory Standards (NCCLS). […]
as §3

[5] = tested on: Pseudomonas aeruginosa (Ps) biofilm; assay: MBEC assay, Ps biofilms exposed to antibiotics and combinations (Example 5); assay type: cell-based; settings: number of the 12 isolates from Cystic Fibrosis patients that are resistant; 24 hours exposure
[6] = tested on: P. aeruginosa planktonic bacteria shed from the biofilm; assay: P. aeruginosa biofilm assay kit, planktonic MIC read on challenge plate (Example 8); assay type: cell-based, Pseudomonas aeruginosa; settings: challenge 35° C. for 24 hours; breakpoint concentrations
[7] = tested on: Pseudomonas aeruginosa (Ps) planktonic bacteria; assay: MBEC assay, Ps planktonic bacteria exposed to antibiotics and combinations (Example 5); assay type: cell-based; settings: number of the 12 isolates from Cystic Fibrosis patients that are resistant; 24 hours exposure
P. aeruginosa biofilm = P. aeruginosa biofilm assay kit, biofilm MBEC read on recovery plate (Example 8); assay type: cell-based, Pseudomonas aeruginosa; settings: challenge 35° C. for 24 hours; recovery 20 to 24 hours; breakpoint concentrations
[8] = tested on: Staphylococcus aureus planktonic forms; assay: Staphylococcus test plate, planktonic sensitivity (Example 9); assay type: cell-based; settings: figure in the label = antibiotic concentration, breakpoint concentrations
[9] = tested on: Staphylococcus aureus (Staph) biofilm; assay: MBEC assay, Staph biofilms exposed to antibiotics and combinations (Example 5); assay type: cell-based; settings: number of the 12 isolates from device associated infections that are resistant; 24 hours exposure
[10] = tested on: Staphylococcus aureus biofilm; assay: Staphylococcus test plate, biofilm sensitivity (Example 9); assay type: cell-based; settings: figure in the label = antibiotic concentration, breakpoint concentrations
[11] = tested on: Staphylococcus aureus (Staph) planktonic bacteria; assay: MBEC assay, Staph planktonic bacteria exposed to antibiotics and combinations (Example 5); assay type: cell-based; settings: number of the 12 isolates from device associated infections that are resistant; 24 hours exposure
[12] = planktonic cultures of C. albicans, 24 hours

With `COC1=CC(=O)C[C@@H](C)[C@]12Oc1c(Cl)c(OC)cc(OC)c1C2=O` [Griseofulvin] the “effectiveness against Candida growing as a biofilm” value (“effectiveness” for short) (Candida biofilms) was “ineffective”.
For `C[C@@H]1[C@H](O)[C@@H](C)/C=C/C=C/C=C/C=C/C=C/C=C/C=C/[C@H](O[C@@H]2O[C@H](C)[C@@H](O)[C@H](N)[C@@H]2O)C[C@@H]2O[C@](O)(C[C@@H](O)C[C@@H](O)[C@H](O)CC[C@@H](O)C[C@@H](O)CC(=O)O[C@H]1C)C[C@H](O)[C@H]2C(=O)O` [amphotericin B, Amphotericin B], the “average concentration required to kill biofilm cells (MBEC)” value [1] is given as 12 µg/mL, the “crude mortality rate of treated patients” value ([2]; invasive cerebral aspergillosis) is given as 99% and the “crude mortality rate of treated patients” value ([2]; invasive pulmonary aspergillosis) is given as 86%. For the same compound, the “crude mortality rate of treated patients” value ([2]; invasive sinus aspergillosis) was 66%, the “effectiveness” value (Candida biofilms) was “most effective” and the “average MFC” value [3, 12] was 0.02 mg/L. The “average MIC” value [3, 12] was 0.09 mg/L.
In the case of `OC(Cn1cncn1)(Cn1cncn1)c1ccc(F)cc1F` [fluconazole, Fluconazole], the “classification by MIC criterion (MIC less than or equal to 8 μg/ml = susceptible)” value [4] is reported as “susceptible” and the “classification by MIC criterion (MIC less than or equal to 8 μg/ml = susceptible)” value ([3]; C. albicans strain tested, planktonic) is reported as “susceptible”.
In the case of `C[C@@H]1[C@H](O)[C@@H](C)/C=C/C=C/CC/C=C/C=C/C=C/C=C/C(O[C@H]2O[C@H](C)[C@@H](O)[C@H](N)[C@@H]2O)CC2O[C@](O)(CC(O)C(O)CCC(O)CC(O)CC(O)CC(=O)O[C@H]1C)CC(O)C2C(=O)O` (some centres unmarked) [nystatin, Nystatin], the “effectiveness” value (Candida biofilms) is reported as “effective; also recorded: most effective”.
For Colistin [CLO], the “Ps resistance to individual antibiotics and antibiotic combinations, Biofilm” value [5] was 12, the “Number of P. aeruginosa isolates resistant to individual antibiotics and antibiotic combinations, Planktonic” value [6] was 2 and the “Ps resistance to individual antibiotics and antibiotic combinations, Planktonic” value [7] was 2. The “Number of P. aeruginosa isolates resistant to individual antibiotics and antibiotic combinations, Biofilm” value (P. aeruginosa biofilm) was 12.
In the case of Polymyxin B, the “effectiveness” value (Candida biofilms) is reported as “ineffective”.
With gentamicin [GM] the “Number of Staphylococcus aureus isolates resistant to individual antibiotics and antibiotic combinations, Planktonic” value ([8]; listed as GM2) was 4, the “Number of Staphylococcus aureus isolates resistant to individual antibiotics and antibiotic combinations, Planktonic” value ([8]; listed as GM4) was 3 and the “Staph resistance to individual antibiotics and antibiotic combinations, Biofilm” value [9] was 10. For the same compound, the “Ps resistance to individual antibiotics and antibiotic combinations, Biofilm” value [5] was 12, the “Number of P. aeruginosa isolates resistant to individual antibiotics and antibiotic combinations, Planktonic” value [6] was 8 and the “Number of Staphylococcus aureus isolates resistant to individual antibiotics and antibiotic combinations, Biofilm” value ([10]; listed as GM2) was 11. For the same compound, the “Number of Staphylococcus aureus isolates resistant to individual antibiotics and antibiotic combinations, Biofilm” value ([10]; listed as GM4) was 10, the “Ps resistance to individual antibiotics and antibiotic combinations, Planktonic” value [7] was 8 and the “Staph resistance to individual antibiotics and antibiotic combinations, Planktonic” value [11] was 6. The “Number of P. aeruginosa isolates resistant to individual antibiotics and antibiotic combinations, Biofilm” value (P. aeruginosa biofilm) was 12.
